Results: ChEMBL document CHEMBL3351412, “Design, synthesis and biological evaluation of β-boswellic acid based HDAC inhibitors as inducers of cancer cell death” (Bioorg Med Chem Lett, 2014)

Assays:
[1] = Cytotoxicity against human HL60 cells; type: functional, cell-based; settings: HL-60
[2] = system: A549; test: Cytotoxicity against human A549 cells; type: functional, cell-based
[3] = Cytotoxicity against human HCT116 cells; type: functional, cell-based; settings: HCT-116
[4] = Cytotoxicity against human MIAPaCa2 cells; type: functional, cell-based; settings: MIA PaCa-2
[5] = system: MCF7; test: Cytotoxicity against human MCF7 cells; type: functional, cell-based
[6] = Cytotoxicity against human FR2 cells; type: cell-based
[7] = target: T1, Histone deacetylase (Homo sapiens) (UniProt Q13547+O15379+Q9UBN7+Q92769+Q9UQL6+Q8WUI4+Q9BY41+Q96DB2+P56524+Q9UKV0+Q969S8); test: Inhibition of HDAC (unknown origin) at 50 uM; type: protein assay
[8] = target: T1, Histone deacetylase (Homo sapiens); test: Inhibition of HDAC (unknown origin) at 30 uM; type: protein assay
[9] = target: Histone deacetylase; test: Inhibition of HDAC (unknown origin); type: protein assay, Homo sapiens

Structure (SMILES)	IC50 [1]	IC50 [2]	IC50 [3]	IC50 [4]	IC50 [5]	IC50 [6]	inhibition [7]	inhibition [8]	IC50 [9]
COC(=O)CCCCCCC(=O)N[C@]1(C)[C@@H]2CC[C@]3(C)[C@H](CC=C4[C@@H]5[C@@H](C)[C@H](C)CC[C@]5(C)CC[C@]43C)[C@@]2(C)CC[C@H]1OC(C)=O	> 20 µM	> 20 µM	> 20 µM	> 20 µM	> 20 µM	> 20 µM	–	–	–
C[C@H]1[C@H](C)CC[C@]2(C)CC[C@]3(C)C(=CC[C@@H]4[C@@]5(C)CC[C@@H](O)[C@](C)(NC(=O)CCCCCCCC(=O)NO)[C@@H]5CC[C@]43C)[C@H]12	12.4 µM	15 µM	11.8 µM	11.9 µM	6.4 µM	> 20 µM	45%	34%	> 50 µM
C[C@H]1[C@H](C)CC[C@]2(C)CC[C@]3(C)C(=CC[C@@H]4[C@@]5(C)CC[C@@H](O)[C@](C)(NC(=O)CCCCCCCC(=O)O)[C@@H]5CC[C@]43C)[C@H]12	> 20 µM	> 20 µM	> 20 µM	15.9 µM	16.5 µM	> 20 µM	–	–	–
CC(=O)O[C@@H]1CC[C@]2(C)[C@H]3C(=O)C=C4[C@@H]5[C@@H](C)[C@H](C)CC[C@]5(C)CC[C@@]4(C)[C@]3(C)CC[C@H]2[C@@]1(C)N	6.1 µM	6 µM	15.3 µM	15.1 µM	14 µM	7.1 µM	–	–	–
C[C@H]1[C@H](C)CC[C@]2(C)CC[C@]3(C)C(=CC(=O)[C@@H]4[C@@]5(C)CC[C@@H](O)[C@](C)(NC(=O)CCCC(=O)O)[C@@H]5CC[C@]43C)[C@H]12	> 20 µM	6.6 µM	7.1 µM	6 µM	11.1 µM	> 20 µM	–	–	–
CC(=O)O[C@@H]1CC[C@]2(C)[C@H]3CC=C4[C@@H]5[C@@H](C)[C@H](C)CC[C@]5(C)CC[C@@]4(C)[C@]3(C)CC[C@H]2[C@@]1(C)N	10 µM	13.2 µM	8.7 µM	7.2 µM	6.9 µM	13.9 µM	–	–	–
C[C@H]1[C@H](C)CC[C@]2(C)CC[C@]3(C)C(=CC(=O)[C@@H]4[C@@]5(C)CC[C@@H](O)[C@](C)(NC(=O)CCCCCCCC(=O)O)[C@@H]5CC[C@]43C)[C@H]12	7.5 µM	> 20 µM	> 20 µM	> 20 µM	15.1 µM	16.6 µM	–	–	–
COC(=O)CCCCC(=O)N[C@]1(C)[C@@H]2CC[C@]3(C)[C@H](CC=C4[C@@H]5[C@@H](C)[C@H](C)CC[C@]5(C)CC[C@]43C)[C@@]2(C)CC[C@H]1OC(C)=O	> 20 µM	> 20 µM	> 20 µM	> 20 µM	13.8 µM	> 20 µM	–	–	–
C[C@H]1[C@H](C)CC[C@]2(C)CC[C@]3(C)C(=CC(=O)[C@@H]4[C@@]5(C)CC[C@@H](O)[C@](C)(NC(=O)CCCCC(=O)O)[C@@H]5CC[C@]43C)[C@H]12	> 20 µM	19.1 µM	> 20 µM	14.1 µM	18 µM	> 20 µM	–	–	–
C[C@H]1[C@H](C)CC[C@]2(C)CC[C@]3(C)C(=CC[C@@H]4[C@@]5(C)CC[C@@H](O)[C@](C)(NC(=O)CCCCC(=O)NO)[C@@H]5CC[C@]43C)[C@H]12	> 20 µM	> 20 µM	> 20 µM	11.8 µM	4.4 µM	> 20 µM	–	–	–
COC(=O)CCCC(=O)N[C@@]1(C)[C@H](OC(C)=O)CC[C@]2(C)C3CC=C4[C@@H]5[C@@H](C)[C@H](C)CC[C@]5(C)CC[C@@]4(C)[C@]3(C)CC[C@@H]12 (single isomer, unassigned)	17.1 µM	> 20 µM	19 µM	11.4 µM	8.7 µM	> 20 µM	–	–	–
C[C@H]1[C@H](C)CC[C@]2(C)CC[C@]3(C)C(=CC(=O)[C@@H]4[C@@]5(C)CC[C@@H](O)[C@](C)(NC(=O)CCCCCCC(=O)O)[C@@H]5CC[C@]43C)[C@H]12	> 20 µM	2.9 µM	> 20 µM	8.6 µM	> 20 µM	> 20 µM	–	–	–
COC(=O)CCCC(=O)N[C@]1(C)[C@@H]2CC[C@]3(C)[C@H](C(=O)C=C4[C@@H]5[C@@H](C)[C@H](C)CC[C@]5(C)CC[C@]43C)[C@@]2(C)CC[C@H]1OC(C)=O	17.6 µM	7.4 µM	> 20 µM	> 20 µM	> 20 µM	> 20 µM	–	–	–
COC(=O)CCCCC(=O)N[C@]1(C)[C@@H]2CC[C@]3(C)[C@H](C(=O)C=C4[C@@H]5[C@@H](C)[C@H](C)CC[C@]5(C)CC[C@]43C)[C@@]2(C)CC[C@H]1OC(C)=O	> 20 µM	15.1 µM	15.1 µM	15.1 µM	15.1 µM	> 20 µM	–	–	–
COC(=O)CCCCCCCC(=O)N[C@]1(C)[C@@H]2CC[C@]3(C)[C@H](C(=O)C=C4[C@@H]5[C@@H](C)[C@H](C)CC[C@]5(C)CC[C@]43C)[C@@]2(C)CC[C@H]1OC(C)=O	10 µM	10 µM	18 µM	6.1 µM	2 µM	17.2 µM	–	–	–
COC(=O)CCCCCCC(=O)N[C@]1(C)[C@@H]2CC[C@]3(C)[C@H](C(=O)C=C4[C@@H]5[C@@H](C)[C@H](C)CC[C@]5(C)CC[C@]43C)[C@@]2(C)CC[C@H]1OC(C)=O	> 20 µM	2 µM	15.7 µM	8 µM	< 0.25 µM	> 20 µM	–	–	–
C[C@H]1[C@H](C)CC[C@]2(C)CC[C@]3(C)C(=CC[C@@H]4[C@@]5(C)CC[C@@H](O)[C@](C)(NC(=O)CCCCCCC(=O)O)[C@@H]5CC[C@]43C)[C@H]12	> 20 µM	> 20 µM	> 20 µM	> 20 µM	> 20 µM	> 20 µM	–	–	–
COC(=O)CCCCCCCC(=O)N[C@]1(C)[C@@H]2CC[C@]3(C)[C@H](CC=C4[C@@H]5[C@@H](C)[C@H](C)CC[C@]5(C)CC[C@]43C)[C@@]2(C)CC[C@H]1OC(C)=O	> 20 µM	> 20 µM	> 20 µM	> 20 µM	17 µM	> 20 µM	–	–	–
C[C@H]1[C@H](C)CC[C@]2(C)CC[C@]3(C)C(=CC[C@@H]4[C@@]5(C)CC[C@@H](O)[C@](C)(NC(=O)CCCC(=O)O)[C@@H]5CC[C@]43C)[C@H]12	13.4 µM	> 20 µM	> 20 µM	11 µM	14.3 µM	> 20 µM	–	–	–
C[C@H]1[C@H](C)CC[C@]2(C)CC[C@]3(C)C(=CC[C@@H]4[C@@]5(C)CC[C@@H](O)[C@](C)(NC(=O)CCCCC(=O)O)[C@@H]5CC[C@]43C)[C@H]12	> 20 µM	> 20 µM	> 20 µM	> 20 µM	> 20 µM	> 20 µM	–	–	–
